# What was measured:
# [1] = Acute toxicity test (LD50); settings: mouse, in vivo, male mice
# [2] = system: NF-κB; experiment: Gel shift assay: inhibition of NF-κB binding activation in U1 cells; format: cell-based, human; settings: for inhibition at 0.1 µg/mL / inhibition at 1 µg/mL: Homo sapiens
# Experimental: Inhibition Action on NF-κB Binding Activation
# In order to examine the action of a test compound cepharanthine to inhibit NF-κB binding activation, U1 [a cell strain derived from HIV-1 (HIV type 1) latent infection human monocyte] cells were stimulated or not stimulated with phorbol 12-myristate 13-acetate (PMA) in the presence or absence of the test compound, and the following assay was carried out using a nucleoprotein extract obtained from the resulting cells.
# Gel shift assay was carried out using an NF-κB probe of HIV-1. A double-stranded DNA fragment of an NF-κB site-like sequence, 5'-AGTTGAGGGGACTTTCCCAGGC-3' from the transcription initiation point, was used as the NF-κB probe of HIV-1. The 5'-terminus of the probe was radiation-labeled with ^32 p in the usual way using [γ-^32 P]ATP and polynucleotide kinase. […] At the same time, a sample in which a large quantity of non-labeled probe was added to the reaction solution was prepared and the same reaction was carried out as a competitive assay. Thereafter, the ^32 P-labeled NF-κB probe was added thereto to carry out 20 minutes of binding reaction at room temperature. After the reaction, 4% unmodified polyacrylamide gel electrophoresis was carried out in order to separate the DNA-NF-κB complex from free oligonucleotide. The gel was subjected to autoradiography, and NF-κB in the nucleoprotein extract was determined by an image analyzer (BIO-RAD, Model GS-700 Imaging Densitometer).
# The action of the test compound to inhibit activation of NF-κB binding by PMA stimulation of U1 cells (inhibition ratio, %) is shown in Table 1.
# V3: Cepharanthine control; reaction (2.5 hours) of U1 cells in the
# presence of 0.1 μg/ml of cepharanthine
# V4: Cepharanthine control; reaction (2.5 hours) of U1 cells in the
# presence of 1 μg/ml of cepharanthine
# V6: Reaction (2 hours) of U1 cells in the presence of 0.1 μg/ml of
# cepharanthine + stimulation (0.5 hour) with 10 ng/ml of PMA
# V7: Reaction (2 hours) of U1 cells in the presence of 1 μg/ml of
# **: V6, V7, V8 and V9 vs. V5
# [3] = system: HIV-1 LTR; experiment: HIV-1 LTR CAT assay: inhibition of HIV-1 LTR transcription activity in HeLa cells; format: cell-based; settings: 48 hours; for % Inhibition: vs. V3 (PMA)
# Experimental: Inhibition action on HIV-1 LTR transcription activity
# In order to examine effect of a test compound cepharanthine on the HIV-1 transcription activity, CAT assay was carried out by the following method.
# A plasmid in which chloramphenicol acetyltransferase (CAT) gene has been linked to the downstream of HIV-1 LTR gene was introduced by lipofection into HeLa cells adjusted to a density of 1×10^6 cells, and the resulting cells were cultured in the presence or absence of the test compound and phorbol 12-myristate 13-acetate (PMA). After 48 hours of the culturing, the cells were collected and washed to prepare a cell extract using a freeze-thawing method. The thus prepared cell extract was allowed to react with acetyl CoA and [^14 C]-labeled chloramphenicol (CM), and the thus formed acetyl[^14 C]CM was separated by a thin layer chromatography, subjected to autoradiography and then […] measured using an image analyzer (BIO-RAD, Model GS-700 Imaging Densitometer).
# V4: HeLa cells were cultured in the presence of cepharanthine (0.1
# μg/ml) + PMA (10 ng/ml)
# V5: HeLa cells were cultured in the presence of cepharanthine (1 μg/ml
# [4] = 0.1 μg/ml, 2 hours + PMA 10 ng/ml, 0.5 hour
# [5] = 1 μg/ml, 2 hours + PMA 10 ng/ml, 0.5 hour
structure (smiles),measurement,setting,value
COc1cc2c3c(c1OC)Oc1ccc(cc1)C[C@@H]1c4c(cc(OC)c(OC)c4Oc4ccc(cc4)C[C@H]3N(C)CC2)CCN1C [cycleanine],LD50,[1]; intravenous,62.5 mg/kg
COc1ccc2cc1Oc1ccc(cc1)C[C@H]1c3c(cc(OC)c(O)c3Oc3cc4c(cc3OC)CCN(C)[C@@H]4C2)CCN1C [homoaromoline],LD50,[1]; intravenous,42.4 mg/kg
COc1ccc2cc1Oc1ccc(cc1)C[C@H]1c3c(cc4c(c3Oc3cc5c(cc3OC)CCN(C)[C@@H]5C2)OCO4)CCN1C [cepharanthine],Area,[2]; [4],70.45 mm × mm
same,Average (OD),[2]; [4],0.491 OD
same,Labeled amount,[2]; [4],34.59 OD × mm × mm
same,Area,"[2]; 0.1 μg/ml, 2.5 hours, no PMA",70.53 mm × mm
same,Average (OD),"[2]; 0.1 μg/ml, 2.5 hours, no PMA",0.447 OD
same,Labeled amount,"[2]; 0.1 μg/ml, 2.5 hours, no PMA",31.53 OD × mm × mm
same,Area,[2]; [5],50.63 mm × mm
same,Average (OD),[2]; [5],0.490 OD
same,Labeled amount,[2]; [5],24.81 OD × mm × mm
same,Area,"[2]; 1 μg/ml, 2.5 hours, no PMA",69.15 mm × mm
same,Average (OD),"[2]; 1 μg/ml, 2.5 hours, no PMA",0.442 OD
same,Labeled amount,"[2]; 1 μg/ml, 2.5 hours, no PMA",30.56 OD × mm × mm
same,inhibition at 0.1 µg/mL,"[2]; 0.1 μg/ml, 2 hours + PMA 10 ng/ml, 0.5 hour, vs. V5 (PMA)",24.7%
same,inhibition at 0.1 µg/mL,"[2]; 0.1 μg/ml, 2.5 hours, no PMA, vs. V2 (untreated U1 cells)",10.9%
same,inhibition at 1 µg/mL,"[2]; 1 μg/ml, 2 hours + PMA 10 ng/ml, 0.5 hour, vs. V5 (PMA)",46%
same,inhibition at 1 µg/mL,"[2]; 1 μg/ml, 2.5 hours, no PMA, vs. V2 (untreated U1 cells)",13.7%
same,LD50,[1]; intravenous,47 mg/kg
same,LD50,[1]; oral,3410 mg/kg
same,Area,[3]; 0.1 μg/ml + PMA (10 ng/ml),54.31 mm × mm
same,Average (OD),[3]; 0.1 μg/ml + PMA (10 ng/ml),0.892 OD
same,Labeled amount,[3]; 0.1 μg/ml + PMA (10 ng/ml),48.44 OD × mm × mm
same,% Inhibition,[3]; 0.1 μg/ml + PMA (10 ng/ml),33.1%
same,Area,[3]; 1 μg/ml + PMA (10 ng/ml),41.00 mm × mm
same,Average (OD),[3]; 1 μg/ml + PMA (10 ng/ml),0.867 OD
same,Labeled amount,[3]; 1 μg/ml + PMA (10 ng/ml),35.55 OD × mm × mm
same,% Inhibition,[3]; 1 μg/ml + PMA (10 ng/ml),50.9%
COc1cc2c3cc1Oc1c(OC)c(OC)cc4c1[C@@H](Cc1ccc(O)c(c1)Oc1ccc(cc1)C[C@@H]3N(C)CC2)N(C)CC4 [berbamine],LD50,[1]; intravenous,18.8 mg/kg
COc1ccc2cc1Oc1ccc(cc1)C[C@H]1c3cc(c(OC)cc3CCN1C)Oc1c(OC)c(OC)cc3c1[C@@H](C2)N(C)CC3 [isotetrandrine],LD50,[1]; intravenous,32.5 mg/kg
COc1cc2c3cc1Oc1c4c(cc5c1[C@H](Cc1ccc(cc1)Oc1cc(ccc1O)C[C@H]3N(C)CC2)N(C)CC5)OCO4 [cepharanoline],LD50,[1]; intravenous,34.3 mg/kg

# Source: patent US6123943A, “NF-KB activity inhibitor” (Kaken Shoyaku Co., Ltd., priority 1997, dated 2000)
